{
  "source": "patent US20240050388A1",
  "about": "(BioLink Life Sciences, Inc., priority 2022, published 2024)",
  "origin": "cited, not measured here",
  "settings": "oral",
  "data": [
    {"smiles": "CC(=O)[O-].CC(=O)[O-].[Ca+2]", "note": "[calcium acetate]", "values": [
      {"measurement": "In vivo phosphate binding", "value": "essentially quantitative"}
    ]}
  ]
}
